Measured values as given in patent US9636409B2, “Enzyme and receptor modulation using covalent conjugates of alpha,alpha-disubstituted glycine esters” (GlaxoSmithKline Intellectual Property Development Limited, priority 2008, dated 2017).
Like-named read-outs stand apart in the source and are kept apart here.

Key:
p38 MAP Kinase α = target: T1, p38 MAP Kinase α (Homo sapiens, UniProt Q16539); test: p38 MAP Kinase enzyme assay; type: biochemical; details: Table 1 (biology); compound as such, Ester for Example 1; read-out: Inhibition of P38 (IC50 nM)
T1 construct: purchased Upstate (Dundee UK)
Method: p38 MAP Kinase Enzyme Assay
The ability of compounds to inhibit p38 MAPα Kinase activity was measured in an assay performed by Upstate (Dundee UK). In a final reaction volume of 25 μL, p38 MAP Kinase α (5-10 mU) is incubated with 25 mM Tris pH 7.5, 0.02 mM EGTA, 0.33 mg/mL myelin basic protein, 10 mM MgAcetate and [γ-^33P-ATP](specific activity approx. 500 cpm/pmol, concentration as required). The reaction is initiated by the addition of the MgATP mix. After incubation for 40 minutes at room temperature, the reaction is stopped by the addition of 5 μL of a 3% phosphoric acid solution. 10 μL of the reaction is then spotted onto a P30 filtermat and washed three times for 5 minutes in 75 mM phosphoric acid and once in methanol prior to drying and scintillation counting.
Duplicate data points are generated from a 1/3 log dilution series of a stock solution in DMSO. Nine dilutions steps are made from a top concentration of […], and a ‘no compound’ blank is included. The standard radiometric filter-binding assay is performed at an ATP concentration at, or close to, the Km. Data from scintillation counts are collected and subjected to free-fit analysis by Prism software. From the curve generated, the concentration giving 50% inhibition is determined and reported.

[1] = test system: phosphorylation of MAPKAP-2 in U937 cells; test: p38 MAP Kinase cellular assay: inhibition of phosphorylation of MAPKAP2 in U937 cells; type: cell-based; details: for IC50: Homo sapiens, U-937
Method: (§1) p38 MAP Kinase Cellular Assay: Inhibition of Phosphorylation of MAPKAP2
(§2) U937 or HUT78 cells were plated in RPMI 1640, and were incubated at 37° C., 5% CO2 for 18 hours. 10 mM stocks of compounds were diluted media/0.1% DMSO to give a log or semi-log dilution series. The wells for ‘no treatment’ and ‘anisomycin’ were treated with 0.1% DMSO only. The cells were incubated at 37° C., 5% CO2 for a further 4 hours. Anisomycin was added to all wells except ‘no treatment’ at a final concentration of 10 μM. The cells were incubated at 37° C., 5% CO2 for 30 minutes before harvest. Plates were stood on ice whilst harvesting, and all following steps were carried out at 4° C. The cells were pelleted at 1000 rpm for 10 minutes at 4° C., the media aspirated, and the pellet washed with cold PBS. The pellets were lysed in 120 μl of SDS lysis buffer (62.5 mM Tris, pH 6.8, 2% SDS, 10% glycerol, 50 mM DTT, with protease inhibitors and phosphatase inhibitors added according to the manufacturers' recommendations). After 30 minutes on ice, the samples were sonicated for 5 seconds before centrifugation at 13,000 rpm 4° C. for 10 minutes to remove cell debris. 10 μl of the resulting gel samples were loaded per lane on NOVEX 4-12% Bis-Tris MOPS gels. Membranes from western transfer of gels were blotted with anti-phospho MAPKAP2, anti-phospho HSP27 and anti GAPDH according to the manufacturers' Instructions. Signal was visualised using HRP-Hnked anti-rabbit or anti-mouse antibodies, ECL reagent and ECL film. IC50 values for the various compounds were visualised from the resulting photographic images, using both band-shift and signal intensity.

[2] = test system: phosphorylation of MAPKAP-2 in HUT 78 cells; test: p38 MAP Kinase cellular assay: inhibition of phosphorylation of MAPKAP2 in HUT 78 cells; type: cell-based; details: Table 2
Method: as §1, §2

recombinant hCE-1 = target: T2, recombinant hCE-1 (Homo sapiens, UniProt P23141); test: HCE-1 carboxylesterase assay; type: in vitro ADME; details: result in words
T2 sequence (P23141 18-567): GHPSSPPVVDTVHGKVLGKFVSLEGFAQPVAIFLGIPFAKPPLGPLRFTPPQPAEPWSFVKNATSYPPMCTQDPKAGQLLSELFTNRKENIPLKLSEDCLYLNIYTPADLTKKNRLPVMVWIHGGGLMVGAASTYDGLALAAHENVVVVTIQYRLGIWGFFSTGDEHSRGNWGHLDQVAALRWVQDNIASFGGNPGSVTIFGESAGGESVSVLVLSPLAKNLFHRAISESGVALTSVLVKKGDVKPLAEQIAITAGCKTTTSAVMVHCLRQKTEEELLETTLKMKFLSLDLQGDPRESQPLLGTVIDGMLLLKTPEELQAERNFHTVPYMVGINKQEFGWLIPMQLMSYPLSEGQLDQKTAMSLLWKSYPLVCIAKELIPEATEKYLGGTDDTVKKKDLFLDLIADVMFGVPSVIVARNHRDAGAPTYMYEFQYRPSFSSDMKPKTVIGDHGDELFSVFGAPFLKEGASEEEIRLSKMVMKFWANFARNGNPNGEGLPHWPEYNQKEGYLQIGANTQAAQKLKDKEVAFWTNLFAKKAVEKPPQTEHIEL
Method: HCE-1 Carboxylesterase Assay
Hydrolysis of esters to the corresponding carboxylic acids by hCE-1 can be measured using the following procedure. At zero time, 100 μl of recombinant hCE-1 at a concentration of 6 μg/mL in phosphate assay buffer (K2PO4 100 mM, KCl 40 mM, pH 7.4) was added to an equal volume of assay buffer containing 5 μM ester substrate. After thorough mixing, triplicate samples were incubated for 0, 20 or 80 minutes at 37° C. At the appropriate time, hydrolysis was stopped by the addition of 600 μl of acetonitrile. For zero time samples, the acetonitrile was added prior to the enzyme. The samples were analysed for the ester and its corresponding carboxylic acid at room temperature by LCMS (Sciex API 3000, HP1100 binary pump, CTC PAL). Chromatography was based on a […] (75×2.1 mm) column and a mobile phase of 5-95% acetonitrile in water/0.1% formic add. Levels of the acid, the hydrolysis product, after 80 minutes are expressed in ng/mL.

T1 sequence (Q16539 whole entry): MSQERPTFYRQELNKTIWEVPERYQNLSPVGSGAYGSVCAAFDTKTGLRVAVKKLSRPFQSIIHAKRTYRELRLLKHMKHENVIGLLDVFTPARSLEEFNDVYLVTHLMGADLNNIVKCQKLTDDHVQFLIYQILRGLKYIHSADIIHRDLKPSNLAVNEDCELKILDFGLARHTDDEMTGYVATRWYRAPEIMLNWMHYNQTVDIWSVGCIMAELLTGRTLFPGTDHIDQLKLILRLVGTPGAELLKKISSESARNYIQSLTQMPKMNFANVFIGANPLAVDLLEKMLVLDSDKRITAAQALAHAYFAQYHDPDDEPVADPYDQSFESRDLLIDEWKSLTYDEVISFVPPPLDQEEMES

## CC(C)(NCCc1ccc(-n2c(N)c(C(=O)c3ccc(F)cc3F)ccc2=O)cc1)C(=O)OC1CCCC1 [Example 1]
p38 MAP Kinase α
  IC50: 50 nM
[1]; Table 1 (biology), U937 cells, read-out: Inhibition of phosphorylation of MAPKAP-2 in U937 cells (IC50)
  IC50: 10 nM
[1]; Table 2, U937 monocyte cell line, read-out: Inhibition of phosphorylation of MAPKAP-2 in U937 cells (IC50, nM) (monocyte cell line)
  IC50: 10 nM
[1]; U937 MAPKAP-2 IC50 to P38 enzyme IC50
  Ratio cell IC50s to enzyme IC50: 0.2
[1]; U937 versus HUT 78
  potency in monocytic versus non monocytic cell lines (MAPKAP-2 phosphorylation): 100 times
[1]; versus Compound I
  potency in the p38 cellular assay compared with the parent compound: significantly more potent than the parent compound
[2]; Homo sapiens, HuT78, HUT 78 non-monocyte cell line
  IC50: 1000 nM
[2]; MAPKAP-2 phosphorylation IC50s
  Ratio IC50s in HUT 78 to U937 cells: 100
Recombinant hCE-1
  hydrolysis by hCE-1: hydrolysed by hCE-1
